Experiments:
[1] = test system: RhoA/ROCK pathway in FH-B cells; assay: Phospho-MLC2 immunoblot (RhoA/ROCK pathway); assay type: cell-based, human; conditions: 4 μM FQI1, 10 minutes
Procedure: For analysis of phosphorylated MLC2, FH-B cells were treated as indicated in the figure legend, washed with PBS and incubated for 5 minutes in lysis buffer (50 mM Tris-HCl pH 8.0, 50 mM NaF, 5 mM MgCl2, 150 mM NaCl, 1% Triton X-100) supplemented with Tricine Sample Buffer (Bio-rad, 1610739), protease inhibitor cocktail (1:200), phosphatase inhibitor cocktail (1:100), and 1% ([…]. Lysates were incubated at 100° C. for 15 minutes and centrifuged at 21,000×g for 10 minutes prior to SDS-PAGE.
Gel electrophoresis and immunoblotting: Microtubule sedimentation fractions and MLC2 analysis samples were separated by electrophoresis through tris-glycine and tricine polyacrylamide gels, respectively, which were transferred to PVDF membranes. Membranes with microtubule sedimentation fractions and MLC2 analysis samples were blocked in 5% milk in TBST and in 5% BSA in TBST, respectively. After overnight incubation with primary antibody at 4° C., the membranes were washed and incubated with secondary antibody for 1 hour at room temperature. Primary antibodies included anti-α-tubulin (1:2,000, Thermo Fisher Scientific, PA529444), anti-acetylated tubulin (1:1,000, Sigma-Aldrich, T7451), anti-phospho MYL9 (1:200, Thermo Fisher Scientific, PA517727), and anti-β-actin (1:5,000, Sigma-Aldrich, A1978). […] Band intensities were quantified from scanned films by densitometry using ImageJ.

FH-B cells = assay: Cell cycle analysis by flow cytometry; assay type: cell-based, human; conditions: asynchronous FH-B cells, 4 μM FQI1, 1 hour
Procedure: Cell cycle analysis by flow cytometry: After trypsinization, subsequent steps prior to staining were performed at 4° C. Cells in PBS were transferred dropwise into ethanol (final concentration of 70%) for overnight incubation. Fixed cells were washed with PBS and then incubated in 50 μg/ml propidium iodide and 10 μg/ml RNase A in PBS for 45 minutes at room temperature. After passage through a cell strainer, cell fluorescence was measured using a Becton Dickinson FACSCalibur. Ten thousand events were counted per sample. Histogram plots were generated using FlowJo.

RPE cells = assay: Microtubule sedimentation assay; assay type: cell-based
Procedure: Cell lysate preparation: For microtubule sedimentation assays, cells were treated as indicated in the figure legends, washed with PBS and incubated in 250 μl of microtubule sedimentation assay lysis buffer (100 mM PIPES pH 6.8, 2 M glycerol, 2 mM EGTA, 5 mM MgCl2, 0.1% Triton X-100) supplemented with 1 μM taxol, protease inhibitor cocktail (1:200, Abcam, ab201111) and phosphatase inhibitor cocktail (1:100, Abcam, ab201115) for 20 minutes at 37° C. Two hundred μl of scraped lysate was centrifuged at 21,000×g for 10 minutes at room temperature. Supernatants were saved as soluble fractions. Pellets were resuspended in 200 μl RIPA buffer (50 mM Tris HCl pH 8.0, 150 mM NaCl, 1% IGEPAL CA630, 0.05% deoxycholic acid) supplemented with 1.05% SDS, protease inhibitor cocktail (1:200) and phosphatase inhibitor cocktail (1:100) and incubated at 100° C. for 15 minutes. Pellet suspensions were centrifuged as before and supernatants were saved as pellet fractions.
Gel electrophoresis and immunoblotting: Microtubule sedimentation fractions and MLC2 analysis samples were separated by electrophoresis through tris-glycine and tricine polyacrylamide gels, respectively, which were transferred to PVDF membranes. Membranes with microtubule sedimentation fractions and MLC2 analysis samples were blocked in 5% milk in TBST and in 5% BSA in TBST, respectively. After overnight incubation with primary antibody at 4° C., the membranes were washed and incubated with secondary antibody for 1 hour at room temperature. Primary antibodies included anti-α-tubulin (1:2,000, Thermo Fisher Scientific, PA529444), anti-acetylated tubulin (1:1,000, Sigma-Aldrich, T7451), anti-phospho MYL9 (1:200, Thermo Fisher Scientific, PA517727), and anti-β-actin (1:5,000, Sigma-Aldrich, A1978). Secondary antibodies included Goat anti-Rabbit HRP (Thermo Fisher Scientific, 31460; 1:10,000 for anti-α-tubulin; 1:5,000 for anti-phospho MYL9), and Goat anti-Mouse HRP (Thermo Fisher Scientific, 62-6520; 1:5,000 for anti-acetylated tubulin; 1:10,000-1:20,000 for anti-β-actin). Membranes were placed into Pierce™ ECL Western Blotting Substrate (Thermo Fisher Scientific, 32106). Autoradiography film was exposed to each membrane for various times to ensure acquisition of non-saturated exposures. Band intensities were quantified from scanned films by densitometry using ImageJ.

CCOc1ccccc1C1CC(=O)Nc2cc3c(cc21)OCO3 (stereo not shown) [FQI1, 8-(2-ethoxyphenyl)-7,8-dihydro-[1,3]dioxolo[4,5-g]quinolin-6(5H)-one]
phosphorylation of MLC2 [1]: elevated
cell cycle phases by cellular DNA profiling (FH-B cells): no apparent shift in cell cycle phases
time after addition at which a drop in pelleted tubulin is observed (RPE cells; 4 μM FQI1): 1 min
microtubule stability and α-tubulin acetylation in the microtubule fraction (RPE cells; 4 μM FQI1 (15- and 30-minute pellets), 1 μM nocodazole or taxol 30 minutes): increase in the amount of acetylated α-tubulin in the microtubule fraction

From US11458132B2, “Quinolin-2(1H)-one inhibitors of Late SV40 Factor” (TRUSTEES OF BOSTON UNIVERSITY, priority 2020, dated 2022)
